According to patent publication US20170172880A1, “Fast Dissolving Peroxymonosulfate Composition” (Colgate-Palmolive Company, priority 2015, published 2017):

Assay: In vitro whitening test on coffee-stained bovine teeth (ΔW*)
Details: Example 6, MPS added to 2% hydrogen peroxide mouthwash
Experimental: The bovine teeth have initial L values of 57-65. The teeth are submerged in deionized water, then removed and soaked for 2 minutes in 20 mL of the test solution. The teeth are then rinsed three times with deionized water. Each such treatment cycle is repeated fourteen times, and after every two cycles values for L*, a* and b* are measured. These figures are used to calculate a whiteness score, W*, which is a measure of overall color change relative to pure white:
ΔW*=W*(treated)−W*(baseline)
The resulting instant whitening mouthwash is compared to a comparative 2% hydrogen peroxide whitening mouthwash composition using the procedure described in Example 5.
The comparative HP mouthwash is compared to the MPS mouthwash and the MPS/HP mouthwash in side-by-side experiments.

In the case of `O=S(=O)([O-])O[O-].[K+].[K+]` [MPS, potassium peroxymonosulfate], the “whitening effect when added to a hydrogen peroxide mouthwash” value is reported as “significant and unexpected additive whitening effect”.
